Series [1] concerns Raji. Kind of series: cells. The note with it: Homo sapiens, 72 h.
Series [2] concerns the target T1, Prostaglandin G/H synthase 2 (Mus musculus, UniProt Q05769).
T1 sequence (Q05769 whole entry): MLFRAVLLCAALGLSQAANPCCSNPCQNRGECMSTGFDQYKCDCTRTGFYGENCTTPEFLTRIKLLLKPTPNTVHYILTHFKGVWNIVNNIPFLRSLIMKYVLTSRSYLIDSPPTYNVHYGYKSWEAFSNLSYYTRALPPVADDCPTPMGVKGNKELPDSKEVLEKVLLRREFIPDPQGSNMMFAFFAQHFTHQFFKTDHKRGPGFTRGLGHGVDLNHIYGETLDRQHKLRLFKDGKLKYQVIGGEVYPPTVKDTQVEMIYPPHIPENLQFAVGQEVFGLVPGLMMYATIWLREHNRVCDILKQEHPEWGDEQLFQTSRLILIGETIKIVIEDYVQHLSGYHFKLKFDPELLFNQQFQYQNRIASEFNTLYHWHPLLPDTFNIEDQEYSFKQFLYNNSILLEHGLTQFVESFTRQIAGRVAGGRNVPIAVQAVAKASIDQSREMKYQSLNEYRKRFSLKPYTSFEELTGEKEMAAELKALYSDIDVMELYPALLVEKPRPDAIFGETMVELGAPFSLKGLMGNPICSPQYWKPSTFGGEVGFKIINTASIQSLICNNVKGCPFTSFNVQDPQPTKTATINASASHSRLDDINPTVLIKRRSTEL

A short description of series [3]: Half life in stimulated gastric fluid of pH 1.0. The conditions noted are these: simulated gastric fluid.
In series [4] the test system is HEK293. Kind of series: cells. The conditions noted are these: Homo sapiens, HEK293, 72 h.
The target in series [5] is T2, Prostaglandin G/H synthase 1 (Ovis aries, UniProt P05979).
T2 sequence (P05979 whole entry): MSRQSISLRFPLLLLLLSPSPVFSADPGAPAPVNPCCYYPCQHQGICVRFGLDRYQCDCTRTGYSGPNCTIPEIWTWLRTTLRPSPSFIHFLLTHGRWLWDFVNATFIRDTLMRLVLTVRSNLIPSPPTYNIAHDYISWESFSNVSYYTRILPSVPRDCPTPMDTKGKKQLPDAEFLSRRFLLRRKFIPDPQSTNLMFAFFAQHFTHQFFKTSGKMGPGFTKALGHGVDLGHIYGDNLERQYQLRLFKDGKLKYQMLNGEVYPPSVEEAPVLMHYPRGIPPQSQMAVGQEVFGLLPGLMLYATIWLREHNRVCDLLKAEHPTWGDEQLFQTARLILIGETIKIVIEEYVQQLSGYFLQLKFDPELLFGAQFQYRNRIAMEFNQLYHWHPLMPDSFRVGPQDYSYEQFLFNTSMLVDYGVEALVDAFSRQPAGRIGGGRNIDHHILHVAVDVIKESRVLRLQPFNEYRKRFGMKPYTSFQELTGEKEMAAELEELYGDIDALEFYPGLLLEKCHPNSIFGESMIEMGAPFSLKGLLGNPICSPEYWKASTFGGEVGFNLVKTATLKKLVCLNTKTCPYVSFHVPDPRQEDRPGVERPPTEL

Series [6] concerns Trypanosoma brucei brucei. The conditions noted are these: 100 nM.
Series [7] deals with Trypanosoma brucei brucei. The note with it: 1 uM.
In series [8] the test system is Trypanosoma brucei brucei. Put plainly: microbe, parasite or virus in culture. The conditions noted are these: 48 h.
Series [9] concerns the target Prostaglandin G/H synthase 1 (Homo sapiens) (UniProt P23219). Put plainly: Inhibition of human COX1.
Series [10] addresses T3, Prostaglandin G/H synthase 2 (Homo sapiens) (UniProt P35354).
T3 sequence (whole entry): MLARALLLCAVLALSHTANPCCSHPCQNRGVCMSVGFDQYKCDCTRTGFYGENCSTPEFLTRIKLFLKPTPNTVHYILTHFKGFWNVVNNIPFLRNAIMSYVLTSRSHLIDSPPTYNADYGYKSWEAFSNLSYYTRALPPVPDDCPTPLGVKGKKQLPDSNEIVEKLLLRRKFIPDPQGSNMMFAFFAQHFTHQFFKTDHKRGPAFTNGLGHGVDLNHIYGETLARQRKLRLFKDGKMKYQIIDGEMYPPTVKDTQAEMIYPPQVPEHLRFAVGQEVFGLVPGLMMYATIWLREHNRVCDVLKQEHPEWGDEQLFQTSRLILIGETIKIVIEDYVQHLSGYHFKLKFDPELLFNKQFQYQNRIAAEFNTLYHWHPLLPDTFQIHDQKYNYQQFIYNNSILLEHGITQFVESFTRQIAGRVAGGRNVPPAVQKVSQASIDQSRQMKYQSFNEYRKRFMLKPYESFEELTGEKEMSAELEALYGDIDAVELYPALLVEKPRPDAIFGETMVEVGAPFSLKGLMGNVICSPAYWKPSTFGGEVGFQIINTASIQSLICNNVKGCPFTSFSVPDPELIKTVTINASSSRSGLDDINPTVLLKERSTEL
Put plainly: Inhibition of human COX2.

For series [11], the system named is Trypanosoma brucei brucei. The conditions noted are these: 1 uM. The source holds these as a separate data set.
For series [12], the system named is Trypanosoma brucei brucei. The note with it: 100 nM. The source holds these as a separate data set.

pIC50: −log10 of the molar value. The source made the active and inactive calls.

Chain of Prostaglandin G/H synthase 1 (Homo sapiens) (P23219 whole entry): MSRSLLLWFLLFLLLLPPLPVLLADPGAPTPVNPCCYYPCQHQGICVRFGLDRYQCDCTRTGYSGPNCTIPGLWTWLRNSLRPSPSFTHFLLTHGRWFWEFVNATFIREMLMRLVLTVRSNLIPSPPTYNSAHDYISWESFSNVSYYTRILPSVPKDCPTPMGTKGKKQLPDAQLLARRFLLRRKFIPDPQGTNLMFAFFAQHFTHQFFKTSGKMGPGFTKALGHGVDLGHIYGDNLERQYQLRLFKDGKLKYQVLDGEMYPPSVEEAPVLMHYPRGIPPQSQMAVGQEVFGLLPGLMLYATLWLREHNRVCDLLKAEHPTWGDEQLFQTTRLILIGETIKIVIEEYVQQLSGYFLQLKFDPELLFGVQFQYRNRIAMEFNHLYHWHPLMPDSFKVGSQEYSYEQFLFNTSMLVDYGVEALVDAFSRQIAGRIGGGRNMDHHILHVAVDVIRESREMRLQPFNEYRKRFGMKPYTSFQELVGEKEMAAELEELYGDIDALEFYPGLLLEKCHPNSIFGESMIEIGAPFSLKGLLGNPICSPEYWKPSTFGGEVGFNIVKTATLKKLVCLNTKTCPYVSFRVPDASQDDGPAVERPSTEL

Usually pIC50 stands for the negative decadic logarithm of the IC50, by convention in mol/L. A high value points to a low IC50. A word on the half-life: it is the time needed for the level to fall by half in the phase considered. Consider `COc1ccc(CCNC(=O)CCC(=O)O[C@@H]2c3cc4c(cc3[C@H](c3cc(OC)c(OC)c(OC)c3)[C@@H]3C(=O)OC[C@H]32)OCO4)cc1`, for which the pIC50 in [1] is 6.89; in series [2], below 5.40; in [4], 7.10; in series [5], below 5.40. Also, the half-life in series [3] is above 24 h.

Take `COc1cc([C@H]2c3cc4c(cc3[C@@H](OC(=O)CCC(=O)NCCCCNC(=O)[C@@H](C)c3ccc(-c5ccccc5)c(F)c3)[C@@H]3COC(=O)[C@@H]23)OCO4)cc(OC)c1OC`: the negative-log IC50 (pIC50) in [1] was 6.74; in series [2], below 5.40; in series [4], 6.74; in series [5], below 5.40. In [3], the half-life is above 24 h.

Turning to `COc1ccc2cc([C@@H](C)C(=O)NCCCCNC(=O)CCC(=O)O[C@@H]3c4cc5c(cc4[C@H](c4cc(OC)c(OC)c(OC)c4)[C@@H]4C(=O)OC[C@H]43)OCO5)ccc2c1`, the negative logarithm of the IC50 (pIC50) in series [1] was 6.37; in series [2], below 5.40; in series [4], 6.48; in [5], below 5.40. In addition, in series [3], the half-life was above 24 h.

Regarding `CO[C@@H](/C(C)=C/C=C/C(C)=C/c1coc(C)n1)[C@@H](C)[C@@H]1C[C@H](O)[C@@]2(C)O[C@@H]2/C=C/[C@@H](C)[C@H]2C[C@H](CC(=O)O2)C[C@@H]2O[C@H]2C(=O)O1` [RHIZOXIN], the values for the pIC50 in [1] and in series [4] were 6.47 and 6.46, respectively. Also, the inhibition entry in series [6] and in series [7] was “Active” throughout. In [3], this compound returned a half-life above 24 h.

With `COc1cc([C@H]2c3cc4c(cc3[C@@H](OC(=O)CCC(=O)NCCCCNC(=O)[C@@H](C)c3cccc(C(=O)c5ccccc5)c3)[C@@H]3COC(=O)[C@@H]23)OCO4)cc(OC)c1OC`, the negative logarithm of the IC50 (pIC50) is below 4.30 in series [1], below 5.40 in series [2], below 4.30 in series [4] and below 5.40 in series [5]. The compound also came in with a half-life in [3] above 24 h.

As for `COc1cc([C@H]2c3cc4c(cc3[C@@H](OC(=O)CCC(=O)NC[C@H](C)c3ccccc3)[C@@H]3COC(=O)[C@@H]23)OCO4)cc(OC)c1OC`, the pIC50 in series [1] is 6.27; in [2], below 5.40; in [4], 6.44; in series [5], below 5.40. For the same compound, the half-life in series [3] was above 24 h.

`COc1cc([C@@H]2c3cc4c(cc3[C@H](OC(=O)CCC(=O)O)[C@H]3COC(=O)[C@H]23)OCO4)cc(OC)c1OC` [SUCCINYLPODOPHYLLOTOXIN]: the negative logarithm of the IC50 (pIC50) was 7.00 in series [1], below 5.40 in [2], 7.12 in series [4] and below 5.40 in series [5]. In [3], this compound displayed a half-life above 24 h.

For `COc1cc([C@H]2c3cc4c(cc3[C@@H](OC(=O)CCC(=O)NCc3ccc(NS(=O)(=O)c5cccc6c(N(C)C)cccc56)cc3)[C@@H]3COC(=O)[C@@H]23)OCO4)cc(OC)c1OC`, the negative logarithm of the IC50 (pIC50) in series [1] is 7.43; in series [2], below 5.40; in series [5], below 5.40. The same compound registered a half-life in [3] above 24 h.

As to `COc1ccc2c(c1)c(CCNC(=O)CCC(=O)O[C@@H]1c3cc4c(cc3[C@H](c3cc(OC)c(OC)c(OC)c3)[C@@H]3C(=O)OC[C@H]31)OCO4)c(C)n2Cc1ccc(Br)cc1`, the negative logarithm of the IC50 (pIC50) in series [1] was 6.38; in series [2], below 5.40; in series [4] it was 6.62; in series [5], below 5.40. The same compound gave a half-life in series [3] above 24 h.

Regarding `COc1ccc2c(c1)c(CC(=O)O)c(C)n2C(=O)c1ccc(Cl)cc1` [INDOMETHACIN], the negative logarithm of the IC50 (pIC50) in series [1], in series [8] and in series [4] was below 4.30 each time. The same compound yielded a half-life in series [3] above 24 h.

Consider `COc1cc([C@H]2c3cc4c(cc3[C@@H](OC(=O)CCC(=O)NCCCCNC(=O)[C@@H](C)c3ccc(CC(C)C)cc3)[C@@H]3COC(=O)[C@@H]23)OCO4)cc(OC)c1OC`, for which the negative-log IC50 (pIC50) in [1] is 6.77; in series [2], below 5.40; in series [4] it was 6.80; in series [5], below 5.40. Also, in series [3], the half-life was above 24 h.

On to `COc1ccc2c(c1)c(CC(=O)NCCOC(=O)CCC(=O)O[C@@H]1c3cc4c(cc3[C@H](c3cc(OC)c(OC)c(OC)c3)[C@@H]3C(=O)OC[C@H]31)OCO4)c(C)n2C(=O)c1ccc(Cl)cc1`, for which the results for the pIC50 in series [1] and in series [4] were 5.89 and 6.07, respectively. The inhibition entry in [9] and in series [10] was “inactive” throughout. Besides, the half-life in series [3] was above 24 h.

For the compound `COc1ccc2c(c1)c(CC(=O)NCCCCCNC(=O)CCC(=O)O[C@@H]1c3cc4c(cc3[C@H](c3cc(OC)c(OC)c(OC)c3)[C@@H]3C(=O)OC[C@H]31)OCO4)c(C)n2C(=O)c1ccc(Cl)cc1`, the negative logarithm of the IC50 (pIC50) in [1] is 6.55; in series [5] it was below 5.40. For the same compound, the inhibition result in series [9] and in [10] was “inactive” in each case. The half-life in [3] is above 24 h.

Take `COc1ccc2c(c1)c(CC(=O)NCCCCNC(=O)CCC(=O)O[C@@H]1c3cc4c(cc3[C@H](c3cc(OC)c(OC)c(OC)c3)[C@@H]3C(=O)OC[C@H]31)OCO4)c(C)n2C(=O)c1ccc(Cl)cc1`: the negative logarithm of the IC50 (pIC50) is 6.92 in [1], 6.53 in [2] and 6.80 in [4]. Further, the inhibition result in series [9] and in [10] was “inactive” each time. Further, the inhibition result in [11] and in series [12] was “Active” each time. In [3], this compound displayed a half-life above 24 h.

Regarding `COc1ccc2c(c1)c(CC(=O)N1CCN(C(=O)CCC(=O)O[C@@H]3c4cc5c(cc4[C@H](c4cc(OC)c(OC)c(OC)c4)[C@@H]4C(=O)OC[C@H]43)OCO5)CC1)c(C)n2C(=O)c1ccc(Cl)cc1`, the results for the pIC50 in series [1] and in [4] were 6.29 and 6.28, respectively. The inhibition entry in [9] and in series [10] was “inactive” throughout. Also, in [3], the half-life was above 24 h.

With `COc1cc([C@@H]2c3cc4c(cc3[C@H](O)[C@H]3COC(=O)[C@H]23)OCO4)cc(OC)c1OC` [PODOFILOX], the pIC50 in [1] is 7.74; in series [2], below 5.40; in series [4] it was 7.77; in [5], below 5.40. Moreover, the half-life in series [3] is above 24 h.

The values are drawn from ChEMBL document CHEMBL1154925 (Bioorg Med Chem Lett, 2010).
